{"source": "paper PMC5841205", "about": "“Pharmacological targeting of apelin impairs glioblastoma growth” (Brain, 2017)", "key": {"C57Bl/6J female mice": {"system": "C57Bl/6J female mice", "assay": "Complete blood count", "format": "in vivo, mouse", "description": "To test potential toxic effects of MM54 and MM193 in vivo, mice were administered 2 mg/kg of MM54, MM193 or vehicle bi-weekly for 4 weeks. At sacrifice, blood was taken for analysis and the heart, kidney, aorta and liver removed, weighed and fixed for histological analysis. For the glycaemic study, animals were starved for 6 h prior to sacrifice.\nTotal blood count DMSO MM54\nRed blood cells (M/µl) 6,8 ± 0,9 7,5 ± 0,3\nMean corpuscular volume (fl) 46,4 ± 0,2 47,2 ± 0,4\nMean corpuscular haemoglobin (pg) 13,0 ± 0,0 13,2 ± 0,2\nMean corpuscular haemoglobin concentration (g/dl) 27,9 ± 0,1 27,9 ± 0,3 Red cell distribution width (%) 15,7 ± 0,2 16,1 ± 0,1\nTable S5. Blood analysis after MM54 treatment\nIn order to test potential toxic effects of MM54 in vivo, C57Bl/6J female mice were administered 2 mg/kg of MM54 or DMSO vehicle, bi-weekly for 4 weeks. At sacrifice, blood was taken for analysis and the heart, kidney, aorta and liver removed, weighed and fixed for histological analysis (as shown in Figure S4). n=4 mice/group, 63 mean±SEM."}, "Solubility in vehicles": {"assay": "Solubility in vehicles", "format": "physicochemical", "description": "Conditions Solubility Solubility […]\nsaline (10%) + hydroxypropyl-β-cyclodextrin >0.69 >1.20 […]\nA. MM54 compound (1 mg) was re-suspended in the different vehicles for 24h, RT, under gentle rotation. Solutions were analysed by HPLC and concentrations calculated using DMSO-re-suspended MM54 as standard. […]"}, "[1]": {"details": "MM54 2 mg/kg bi-weekly, 4 weeks, female C57Bl/6J mice, n=4, mean±SEM"}, "[2]": {"details": "saline (10%) + hydroxypropyl-β-cyclodextrin, 1 mg, 24h, RT, gentle rotation, HPLC"}, "[3]": {"details": "saline (10%) + kolliphor EL, 1 mg, 24h, RT, gentle rotation, HPLC"}, "[4]": {"details": "saline (15%) + kolliphor HS15 + PEG (10%) + ethanol (5%), 1 mg, 24h, RT, gentle rotation, HPLC"}, "[5]": {"details": "saline (15%) + kolliphor HS15, 1 mg, 24h, RT, gentle rotation, HPLC"}, "[6]": {"details": "saline (NaCl 0.9%), 1 mg resuspended, 24h, RT, gentle rotation, HPLC"}}, "note": "Positions of bridges follow the written chain, without caps; N, C: chain ends. Residues, ends and D or L forms follow the SMILES beside them."}
{"compound": "CC(C)C[C@@H]1NC(=O)[C@H](CCCNC(=N)N)NC(=O)[C@@H]2CCCN2C(=O)[C@H](CCCNC(=N)N)NC(=O)[C@@H](NC(=O)[C@H](Cc2c[nH]cn2)NC(=O)[C@H](CCCCN)NC(=O)[C@@H]2CSSC[C@H](N)C(=O)N[C@@H](CCCNC(=N)N)C(=O)N3CCC[C@H]3C(=O)N[C@@H](CCCNC(=N)N)C(=O)N[C@@H](CC(C)C)C(=O)N2)CSSC[C@@H](C(=O)O)NC1=O", "note": "[MM54, cyclo(1–6)CRPRLC-KH-cyclo(9–14)CRPRLC] (H-CRPRLCKHCRPRLC-OH; disulfide 1-6, 9-14)", "values": [{"measurement": "complete blood count vs vehicle", "setting": "C57Bl/6J female mice; MM54 2 mg/kg bi-weekly for 4 weeks, healthy animals", "result": "no significant differences"}, {"measurement": "Basophils", "setting": "C57Bl/6J female mice; [1]", "result": "0,19 ± 0,12 K/µl"}, {"measurement": "Eosinophils", "setting": "C57Bl/6J female mice; [1]", "result": "0,52 ± 0,28 K/µl"}, {"measurement": "Haemoglobin", "setting": "C57Bl/6J female mice; [1]", "result": "9,9 ± 0,6 g/dl"}, {"measurement": "Hematocrit", "setting": "C57Bl/6J female mice; [1]", "result": "35,4 ± 1,9%"}, {"measurement": "Lymphocytes", "setting": "C57Bl/6J female mice; [1]", "result": "7,50 ± 0,51 K/µl"}, {"measurement": "Mean corpuscular haemoglobin", "setting": "C57Bl/6J female mice; [1]", "result": "13,2 ± 0,2 pg"}, {"measurement": "Mean corpuscular haemoglobin concentration", "setting": "C57Bl/6J female mice; [1]", "result": "27,9 ± 0,3 g/dl"}, {"measurement": "Mean corpuscular volume", "setting": "C57Bl/6J female mice; [1]", "result": "47,2 ± 0,4 fl"}, {"measurement": "Mean platelet volume", "setting": "C57Bl/6J female mice; [1]", "result": "4,45 ± 0,16 fl"}, {"measurement": "Monocytes", "setting": "C57Bl/6J female mice; [1]", "result": "0,42 ± 0,11 K/µl"}, {"measurement": "Neutrophils", "setting": "C57Bl/6J female mice; [1]", "result": "2,56 ± 0,66 K/µl"}, {"measurement": "Platelet", "setting": "C57Bl/6J female mice; [1]", "result": "301 ± 27", "unit": "K/µl"}, {"measurement": "Red blood cells", "setting": "C57Bl/6J female mice; [1]", "result": "7,5 ± 0,3 M/µl"}, {"measurement": "Red cell distribution width", "setting": "C57Bl/6J female mice; [1]", "result": "16,1 ± 0,1%"}, {"measurement": "solubility", "setting": "Solubility in vehicles; in the tested solutions (vehicles)", "result": "good solubility in the tested solutions"}, {"measurement": "Solubility (mM), saline + hydroxypropyl-β-cyclodextrin", "setting": "Solubility in vehicles; [2]", "result": "> 0.69", "unit": "mM"}, {"measurement": "Solubility (mg.ml-1), saline + hydroxypropyl-β-cyclodextrin", "setting": "Solubility in vehicles; [2]", "result": "> 1.20", "unit": "mg/mL"}, {"measurement": "Solubility (mM), saline + kolliphor EL", "setting": "Solubility in vehicles; [3]", "result": "> 0.60", "unit": "mM"}, {"measurement": "Solubility (mg.ml-1), saline + kolliphor EL", "setting": "Solubility in vehicles; [3]", "result": "> 1.04", "unit": "mg/mL"}, {"measurement": "Solubility (mM), saline + kolliphor HS15 + PEG + ethanol", "setting": "Solubility in vehicles; [4]", "result": "> 0.73", "unit": "mM"}, {"measurement": "Solubility (mg.ml-1), saline + kolliphor HS15 + PEG + ethanol", "setting": "Solubility in vehicles; [4]", "result": "> 1.27", "unit": "mg/mL"}, {"measurement": "Solubility (mM), saline + kolliphor HS15", "setting": "Solubility in vehicles; [5]", "result": "> 0.69", "unit": "mM"}, {"measurement": "Solubility (mg.ml-1), saline + kolliphor HS15", "setting": "Solubility in vehicles; [5]", "result": "> 1.20", "unit": "mg/mL"}, {"measurement": "Solubility (mg.ml-1), saline", "setting": "Solubility in vehicles; [6]", "result": "> 1.27", "unit": "mg/mL"}, {"measurement": "solubility at 24 h", "setting": "Solubility in vehicles; [6]", "result": "> 0.73", "unit": "mM"}]}
